Read-outs that look alike come from different tables or passages of the source.
What was measured:
rat CB2 receptor (rCB2) = target: T1, rat CB2 receptor (rCB2) (Rattus norvegicus, UniProt Q9QZN9); assay: cell-based; assay type: cell-based; conditions: for +/− RCB2: agonist or inverse agonist at rCB2
T1 sequence (Q9QZN9 1-360): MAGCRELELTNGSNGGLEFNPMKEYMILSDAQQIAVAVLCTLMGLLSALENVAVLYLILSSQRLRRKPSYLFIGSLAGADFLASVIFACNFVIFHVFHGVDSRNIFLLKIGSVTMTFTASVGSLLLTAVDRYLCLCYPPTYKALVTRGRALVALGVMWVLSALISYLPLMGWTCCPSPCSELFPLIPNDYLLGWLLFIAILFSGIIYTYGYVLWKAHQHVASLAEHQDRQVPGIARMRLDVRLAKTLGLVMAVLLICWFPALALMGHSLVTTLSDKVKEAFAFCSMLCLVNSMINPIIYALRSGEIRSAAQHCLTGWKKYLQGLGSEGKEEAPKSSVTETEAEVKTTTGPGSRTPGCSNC
How it was run: (§1)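 Agonism or inverse agonism was assessed as change in intracellular cAMP in CHO-K1 cells expressing human CB1 or rat CB2 (genomic DNA, pcDNA3.1).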

[1] = target: human CB1 receptor (hCB1) (Homo sapiens, UniProt P21554); assay: cell-based; assay type: cell-based
How it was run: as §1

[2] = groups >100 nM-10 μM and >10 μM, cAMP, CHO-K1 rCB2, read-out: EC50 RCB2
[3] = groups >100 nM-10 μM and >10 μM, cAMP, CHO-K1 hCB1, read-out: EC50 HCB1

Chain of human CB1 receptor (hCB1) (P21554 whole entry): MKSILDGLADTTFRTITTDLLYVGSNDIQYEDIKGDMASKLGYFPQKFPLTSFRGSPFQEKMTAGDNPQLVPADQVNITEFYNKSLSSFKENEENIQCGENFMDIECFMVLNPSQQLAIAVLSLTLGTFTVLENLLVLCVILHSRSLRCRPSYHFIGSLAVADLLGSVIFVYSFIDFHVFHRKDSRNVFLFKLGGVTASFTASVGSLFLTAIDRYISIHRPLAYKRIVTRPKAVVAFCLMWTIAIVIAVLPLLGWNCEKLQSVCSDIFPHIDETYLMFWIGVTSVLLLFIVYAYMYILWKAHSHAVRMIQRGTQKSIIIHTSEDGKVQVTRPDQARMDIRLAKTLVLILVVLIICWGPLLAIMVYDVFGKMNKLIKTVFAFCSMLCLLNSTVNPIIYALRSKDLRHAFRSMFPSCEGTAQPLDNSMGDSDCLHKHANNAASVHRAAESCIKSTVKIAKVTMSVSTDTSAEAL

SMILES	EC50 [1, 3]	+/− RCB2 (rat CB2 receptor (rCB2))	EC50 [1]	EC50 (rat CB2 receptor (rCB2))	also measured
CN1CCn2c(-c3ccc(Cl)cc3F)nc(C(=O)NC3CCN(S(C)(=O)=O)CC3)c2C1 [Compound 213, 3-(4-chloro-2-fluorophenyl)-7-methyl-N-(1-(methylsulfonyl)piperidin-4-yl)-5,6,7,8-tetrahydroimidazo[1,5-a]pyrazine-1-carboxamide]	> 10000 nM				EC50 (rat CB2 receptor (rCB2); [2]): > 10000 nM
CN1CCn2c(-c3ccc(Cl)cc3F)nc(C(=O)N3CCC4(CC3)C(=O)NCN4c3ccccc3)c2C1 [Compound 214, 8-(3-(4-chloro-2-fluorophenyl)-7-methyl-5,6,7,8-tetrahydroimidazo[1,5-a]pyrazine-1-carbonyl)-1-phenyl-1,3,8-triazaspiro[4.5]decan-4-one]		−	> 10000 nM		
CN1CCn2c(-c3ccc(Cl)cc3F)nc(C(=O)N3CCC(n4c(=O)[nH]c5ccccc54)CC3)c2C1 [Compound 215, 1-(1-(3-(4-chloro-2-fluorophenyl)-7-methyl-5,6,7,8-tetrahydroimidazo[1,5-a]pyrazine-1-carbonyl)piperidin-4-yl)-1H-benzo[d]imidazol-2(3H)-one]	> 10000 nM	−			
CNC(=O)c1cccc(NC(=O)c2nc(-c3ccc(Cl)cc3F)n3c2CN(C)CC3)c1 [Compound 216, 3-(4-chloro-2-fluorophenyl)-7-methyl-N-(3-(methylcarbamoyl)phenyl)-5,6,7,8-tetrahydroimidazo[1,5-a]pyrazine-1-carboxamide]	> 10000 nM	−			
CNC(=O)c1ccccc1NC(=O)c1nc(-c2ccc(Cl)cc2F)n2c1CN(C)CC2 [Compound 217]	> 10000 nM				EC50 (rat CB2 receptor (rCB2); [2]): > 10000 nM
CNC(=O)c1ccc(NC(=O)c2nc(-c3ccc(Cl)cc3F)n3c2CN(C)CC3)cc1 [Compound 218]	> 10000 nM				EC50 (rat CB2 receptor (rCB2); [2]): > 10000 nM
CN1CCn2c(-c3ccc(Cl)cc3F)nc(C(=O)Nc3ccc(S(=O)(=O)N4CCOCC4)cc3)c2C1 [Compound 219]	> 10000 nM	−			
CN1CCn2c(-c3ccc(Cl)cc3F)nc(C(=O)N3CCC4(CCN(C)C4=O)CC3)c2C1 [Compound 221, 8-(3-(4-chloro-2-fluorophenyl)-7-methyl-5,6,7,8-tetrahydroimidazo[1,5-a]pyrazine-1-carbonyl)-2-methyl-2,8-diazaspiro[4.5]decan-1-one]			> 10000 nM	> 10000 nM	
CN1CCn2c(-c3ccc(Cl)cc3F)nc(C(=O)N3CCC(N4C(=O)Cc5ccccc54)CC3)c2C1 [Compound 222, 1-(1-(3-(4-chloro-2-fluorophenyl)-7-methyl-5,6,7,8-tetrahydroimidazo[1,5-a]pyrazine-1-carbonyl)piperidin-4-yl)indolin-2-one]			> 10000 nM	> 10000 nM	
Cc1nnc(C)n1C1CCN(C(=O)c2nc(-c3ccc(Cl)cc3F)n3c2CN(C)CC3)CC1 [Compound 223, (3-(4-chloro-2-fluorophenyl)-7-methyl-5,6,7,8-tetrahydroimidazo[1,5-a]pyrazin-1-yl)(4-(3,5-dimethyl-4H-1,2,4-triazol-4-yl)piperidin-1-yl)methanone]			> 10000 nM	> 10000 nM	
COC(=O)c1cccc(CNC(=O)c2nc(-c3ccc(Cl)cc3F)n3c2CN(C)CC3)c1 [Compound 224, methyl 3-((3-(4-chloro-2-fluorophenyl)-7-methyl-5,6,7,8-tetrahydroimidazo[1,5-a]pyrazine-1-carboxamido)methyl)benzoate]	> 10000 nM	−			
CN1CCn2c(-c3ccc(Cl)cc3F)nc(C(=O)N3CCC(C(N)=O)(N4CCOCC4)CC3)c2C1 [Compound 225]			> 10000 nM	> 10000 nM	
CN1CCn2c(-c3ccc(Cl)cc3F)nc(C(=O)N3CCC(C(=O)N4CCOCC4)CC3)c2C1 [Compound 226, (3-(4-chloro-2-fluorophenyl)-7-methyl-5,6,7,8-tetrahydroimidazo[1,5-a]pyrazin-1-yl)(4-(morpholine-4-carbonyl)piperidin-1-yl)methanone]			> 10000 nM	> 10000 nM	
CN1CCn2c(-c3ccc(Cl)cc3F)nc(C(=O)N3CCC(n4cc(-c5ccccc5)[nH]c4=O)CC3)c2C1 [Compound 227, 1-(1-(3-(4-chloro-2-fluorophenyl)-7-methyl-5,6,7,8-tetrahydroimidazo[1,5-a]pyrazine-1-carbonyl)piperidin-4-yl)-4-phenyl-1H-imidazol-2(3H)-one]	> 10000 nM	−			
CN1CCn2c(-c3ccc(Cl)cc3F)nc(C(=O)NCc3ccc4[nH]c(=O)[nH]c4c3)c2C1 [Compound 228, 3-(4-chloro-2-fluorophenyl)-7-methyl-N-((2-oxo-2,3-dihydro-1H-benzo[d]imidazol-5-yl)methyl)-5,6,7,8-tetrahydroimidazo[1,5-a]pyrazine-1-carboxamide]	> 10000 nM	−			
CN1CCn2c(-c3ccccc3)nc(C(=O)NCCCO)c2C1 [Compound 229, N-(3-hydroxypropyl)-7-methyl-3-phenyl-5,6,7,8-tetrahydroimidazo[1,5-a]pyrazine-1-carboxamide]			> 10000 nM	> 10000 nM	
CN1CCn2c(-c3ccccc3)nc(C(=O)NC(C)(C)CO)c2C1 [Compound 230, N-(1-hydroxy-2-methylpropan-2-yl)-7-methyl-3-phenyl-5,6,7,8-tetrahydroimidazo[1,5-a]pyrazine-1-carboxamide]	> 10000 nM				EC50 (rat CB2 receptor (rCB2); [2]): > 10000 nM
CC(CO)NC(=O)c1nc(-c2ccccc2)n2c1CN(C)CC2 (stereo not shown) [Compound 231, N-(1-hydroxypropan-2-yl)-7-methyl-3-phenyl-5,6,7,8-tetrahydroimidazo[1,5-a]pyrazine-1-carboxamide]	> 10000 nM				EC50 (rat CB2 receptor (rCB2); [2]): > 10000 nM
CCC(CO)NC(=O)c1nc(-c2ccccc2)n2c1CN(C)CC2 (stereo not shown) [Compound 232, N-(1-hydroxybutan-2-yl)-7-methyl-3-phenyl-5,6,7,8-tetrahydroimidazo[1,5-a]pyrazine-1-carboxamide]			> 10000 nM	> 10000 nM	
CCCC(CO)NC(=O)c1nc(-c2ccccc2)n2c1CN(C)CC2 (stereo not shown) [Compound 233, N-(1-hydroxypentan-2-yl)-7-methyl-3-phenyl-5,6,7,8-tetrahydroimidazo[1,5-a]pyrazine-1-carboxamide]			> 10000 nM	> 10000 nM	
CN1CCn2c(-c3ccccc3)nc(C(=O)NCC3OCCO3)c2C1 [Compound 234, N-((1,3-dioxolan-2-yl)methyl)-7-methyl-3-phenyl-5,6,7,8-tetrahydroimidazo[1,5-a]pyrazine-1-carboxamide]		+	> 10000 nM		
CN1CCn2c(-c3ccccc3)nc(C(=O)NC3(CO)CCCC3)c2C1 [Compound 235, N-(1-(hydroxymethyl)cyclopentyl)-7-methyl-3-phenyl-5,6,7,8-tetrahydroimidazo[1,5-a]pyrazine-1-carboxamide]			> 10000 nM	> 10000 nM	
CN1CCn2c(-c3ccccc3)nc(C(=O)NCC3CCOCC3)c2C1 [Compound 236, 7-methyl-3-phenyl-N-((tetrahydro-2H-pyran-4-yl)methyl)-5,6,7,8-tetrahydroimidazo[1,5-a]pyrazine-1-carboxamide]			> 10000 nM	> 10000 nM	
Cc1cnc(CNC(=O)c2nc(-c3ccccc3)n3c2CN(C)CC3)cn1 [Compound 237, 7-methyl-N-((5-methylpyrazin-2-yl)methyl)-3-phenyl-5,6,7,8-tetrahydroimidazo[1,5-a]pyrazine-1-carboxamide]			> 10000 nM	> 10000 nM	
CNC(=O)[C@@H](NC(=O)c1nc(C2=CCCC2)n2c1CN(C)CC2)C(C)(C)C [Compound 238, (S)-3-cyclopentenyl-N-(3,3-dimethyl-1-(methylamino)-1-oxobutan-2-yl)-7-methyl-5,6,7,8-tetrahydroimidazo[1,5-a]pyrazine-1-carboxamide]				> 10000 nM	+/− HCB1 ([1]; agonist or inverse agonist at hCB1): +
CNC(=O)[C@@H](NC(=O)c1nc(-c2cncnc2)n2c1CN(C)CC2)C(C)(C)C [Compound 239, (S)-N-(3,3-dimethyl-1-(methylamino)-1-oxobutan-2-yl)-7-methyl-3-(pyrimidin-5-yl)-5,6,7,8-tetrahydroimidazo[1,5-a]pyrazine-1-carboxamide]	> 10000 nM				EC50 (rat CB2 receptor (rCB2); [2]): > 10000 nM
CNC(=O)[C@@H](NC(=O)c1nc(-c2ccc(C)c(F)c2)n2c1CN(C)CC2)C(C)(C)C [Compound 240, (S)-N-(3,3-dimethyl-1-(methylamino)-1-oxobutan-2-yl)-3-(3-fluoro-4-methylphenyl)-7-methyl-5,6,7,8-tetrahydroimidazo[1,5-a]pyrazine-1-carboxamide]		−	> 10000 nM		
CNC(=O)[C@@H](NC(=O)c1nc(-c2ccc(Cl)cc2F)n2c1CN(C)CC2)C(C)(C)C [Compound 241, (S)-3-(4-chloro-2-fluorophenyl)-N-(3,3-dimethyl-1-(methylamino)-1-oxobutan-2-yl)-7-methyl-5,6,7,8-tetrahydroimidazo[1,5-a]pyrazine-1-carboxamide]		−	> 10000 nM		
CNC(=O)[C@@H](NC(=O)c1nc(-c2cccc3cccnc23)n2c1CN(C)CC2)C(C)(C)C [Compound 242, (S)-N-(3,3-dimethyl-1-(methylamino)-1-oxobutan-2-yl)-7-methyl-3-(quinolin-8-yl)-5,6,7,8-tetrahydroimidazo[1,5-a]pyrazine-1-carboxamide]		−	> 10000 nM		

From patent US7517874B2 (priority 2007, dated 2009)
